Test results published in the NIST ThermoML archive (doi:10.1016/j.jct.2019.04.018).
Numbers after ± are expanded uncertainties.

Legend:
[1] = xn = mol fraction of the nth substance listed; settings: 100 kPa, Liquid; for viscosity: Capillary tube (Ostwald / Ubbelohde) method; for speed of sound: Frequency=2 MHz, Single path-length method; for mass density: Vibrating tube method
[2] = 100 kPa, Liquid; for viscosity: Capillary tube (Ostwald / Ubbelohde) method; for speed of sound: Frequency=2 MHz, Single path-length method; for mass density: Vibrating tube method

| Structure (SMILES) | viscosity ([2]; 303.15 K) [mPa·s] | speed of sound ([2]; 303.15 K) [m/s] | mass density ([2]; 303.15 K) [kg/m3] | viscosity ([2]; 308.15 K) [mPa·s] | speed of sound ([2]; 308.15 K) [m/s] | mass density ([2]; 308.15 K) [kg/m3] | viscosity ([2]; 313.15 K) [mPa·s] | speed of sound ([2]; 313.15 K) [m/s] | mass density ([2]; 313.15 K) [kg/m3] | other results |
| --- | --- | --- | --- | --- | --- | --- | --- | --- | --- | --- |
| C=COC(C)=O [vinyl acetate] + C=COCCCC | – | – | – | – | – | – | – | – | – | viscosity ([1]; 303.15 K, x1 = 1): 0.388 ± 0.014 mPa·s; speed of sound ([1]; 303.15 K, x1 = 1): 1092 ± 5 m/s; mass density ([1]; 303.15 K, x1 = 1): 919.4 ± 1.1 kg/m3; viscosity ([1]; 308.15 K, x1 = 1): 0.37 ± 0.014 mPa·s; speed of sound ([1]; 308.15 K, x1 = 1): 1074 ± 5 m/s; mass density ([1]; 308.15 K, x1 = 1): 913.5 ± 1.1 kg/m3; viscosity ([1]; 313.15 K, x1 = 1): 0.352 ± 0.014 mPa·s; speed of sound ([1]; 313.15 K, x1 = 1): 1054 ± 5 m/s; mass density ([1]; 313.15 K, x1 = 1): 907.3 ± 1.1 kg/m3 |
| COc1ccccc1 [anisole] + C=COC(C)=O | – | – | – | – | – | – | – | – | – | viscosity ([1]; 303.15 K, x2 = 0): 0.929 ± 0.015 mPa·s; speed of sound ([1]; 303.15 K, x2 = 0): 1386 ± 5 m/s; mass density ([1]; 303.15 K, x2 = 0): 984.4 ± 1.1 kg/m3; viscosity ([1]; 308.15 K, x2 = 0): 0.849 ± 0.015 mPa·s; speed of sound ([1]; 308.15 K, x2 = 0): 1366 ± 5 m/s; mass density ([1]; 308.15 K, x2 = 0): 979.8 ± 1.1 kg/m3; viscosity ([1]; 313.15 K, x2 = 0): 0.788 ± 0.015 mPa·s; speed of sound ([1]; 313.15 K, x2 = 0): 1348 ± 5 m/s; mass density ([1]; 313.15 K, x2 = 0): 975 ± 1.1 kg/m3 |
| COc1ccccc1 [anisole] | 0.929 ± 0.015 | 1386 ± 5 | 984.4 ± 1.1 | 0.849 ± 0.015 | 1366 ± 5 | 979.8 ± 1.1 | 0.788 ± 0.015 | 1348 ± 5 | 975 ± 1.1 | – |
| C=COC(C)=O [vinyl acetate] | 0.388 ± 0.014 | 1092 ± 5 | 919.4 ± 1.1 | 0.37 ± 0.014 | 1074 ± 5 | 913.5 ± 1.1 | 0.352 ± 0.014 | 1054 ± 5 | 907.3 ± 1.1 | – |
| C=COCCCC [1-(ethenyloxy)butane] | 0.386 ± 0.015 | 1086 ± 6 | 769 ± 1.2 | 0.373 ± 0.015 | 1076 ± 6 | 763.9 ± 1.2 | 0.352 ± 0.015 | 1066 ± 6 | 758.8 ± 1.2 | – |
| CC(C)OC(C)C [diisopropyl ether] + C=COC(C)=O | – | – | – | – | – | – | – | – | – | viscosity ([1]; 303.15 K, x2 = 0): 0.301 ± 0.014 mPa·s; speed of sound ([1]; 303.15 K, x2 = 0): 982 ± 6 m/s; mass density ([1]; 303.15 K, x2 = 0): 713.1 ± 1.2 kg/m3; viscosity ([1]; 308.15 K, x2 = 0): 0.287 ± 0.014 mPa·s; speed of sound ([1]; 308.15 K, x2 = 0): 962 ± 6 m/s; mass density ([1]; 308.15 K, x2 = 0): 707.9 ± 1.2 kg/m3; viscosity ([1]; 313.15 K, x2 = 0): 0.276 ± 0.014 mPa·s; speed of sound ([1]; 313.15 K, x2 = 0): 942 ± 6 m/s; mass density ([1]; 313.15 K, x2 = 0): 702.5 ± 1.2 kg/m3 |
| CC(C)OC(C)C [diisopropyl ether] | 0.301 ± 0.014 | 982 ± 6 | 713.1 ± 1.2 | 0.287 ± 0.014 | 962 ± 6 | 707.9 ± 1.2 | 0.276 ± 0.014 | 942 ± 6 | 702.5 ± 1.2 | – |
